These results are taken from patent US20060122234A1, “Substituted thienyl-hydroxamic acids as histone deacetylase inhibitors” (Argenta Discovery Limited, priority 2002, published 2006).

The subject of test [1] is MDA-MB-231 human mammary gland adenocarcinoma cells. Description: Cell proliferation assay (secondary assay), CyQUANT, MDA-MB-231. It counts as cell-based. Conditions: MDA-MB-231, 72h exposure, 0.1% DMSO. As to the method:
(§1) Compounds are tested in a cell proliferation assay using the following cell lines:
MDA-MB-231 are kept in L-15 (Leibovitz) medium (Gibco) supplemented with 15% FCS at 37° C. in a non-modified atmosphere, humidified incubator.
(§2) Cells are seeded in 96-well plates at a density of 20,000 cells/ml (3,000 cells/well) and after 24 h they are exposed to different concentrations of compounds in 0.1% DMSO. Cells are grown for a further 72h, the media is removed and the cells are frozen at −80° C. for at least 30 minutes and lysed in a solution containing the CyQUANT dye. […] Therefore the fluorescence intensity is proportional to the number of cells present in each well and can be quantified using a multiwell fluorimeter by measuring the fluorescence of the solution at 520 nm.
(§3) The percent activity of the compounds in reducing cell number is calculated as follow: % activity={(A^S−B)/(A^C−B)}×100 where: […]
(§4) A^S is the fluorescence at 520 nm in the presence of the tested compound (Sample).
(§5) A^C is the fluorescence at 520 nm in the presence of vehicle 0.1% DMSO (Control).
(§6) B is the fluorescence at 520 nm in the absence of cells (Background fluorescence).
(§7) The IC50 is defined as the concentration at which a given compound achieves 50% activity. IC50 values are calculated using the XLfit software package (version 2.0.5).

In test [2] the test system is MCF-7 human mammary gland adenocarcinoma cells. Description: Cell proliferation assay (secondary assay), CyQUANT, MCF-7. The format is cell-based. Conditions: MCF7, MCF-7, 72h exposure, 0.1% DMSO. As to the method: as §1
Both cell lines are free of Mycoplasma contamination (PCR Mycoplasma Detection Set, Takara). MCF-7 are kept in MEM medium (Gibco) supplemented with 10% FCS and 1% Non Essential Amino Acids at 37° C. in a 5% CO2 humidified incubator.
as §2, §3, §4, §5, §6, §7

Test [3] deals with histone deacetylase activity (total lysates from K562 cells or HeLa nuclear extracts). Nature of the test: Deacetylase assay (primary assay), fluorescent acetylated-lysine substrate. Conditions: 30 minutes, 116 μM fluorescent substrate, 1% DMSO; read-out: IC50 (histone deacetylase enzymatic activity). It counts as biochemical, human. As to the method:
Compounds are tested for their capacity to inhibit histone deacetylase activity (primary assay) and for their biological effects on growing cells (secondary assay).
Total lysates from K562 chronic human myelogenous leukemia cells (obtained from American Type Culture Collection, Rockville, Md.) are used as source of HDAC activity. Cells are grown in RPMI media supplied with 10% FCS, harvested by centrifugation, washed once in PBS and resuspended at a density of 24×10^6/ml in HDA buffer (15 mM Potassium phosphate pH 7.5, 5% glycerol, 0.2 mM EDTA). After sonication, lysates are centrifuged at 1000 g for 20 minutes and the resulting supernatant is aliquoted and stored at −80° C. Alternatively, commercially available HeLa nuclear extracts (BIOMOL) are used as source of histone deacetylase activity.
The assay was carried out for 30 minutes using 116 μM of a fluorescent substrate containing an acetylated lysine (BIOMOL). When deacetylation of the lysine occurs, the substrate can react with the added developer producing a fluorophore. The amount of fluorophore produced is proportional to the HDAC activity in the sample and is quantified using a multiwell fluorimeter capable of excitation at 360 nm and detection at 450 nm.
Compounds are diluted in DMSO prior to addition to assay buffer, the final DMSO concentration in the assay being 1%.
The percent activity of the compounds in reducing histone deacetylase enzymatic activity is calculated as follow: % activity={(F^S−B)/(F^C−B)}×100 where: […]
F^S is the fluorescence at 450 nm in the presence of the tested compound (Sample).
F^C is the fluorescence at 450 nm in the presence of vehicle 1% DMSO (Control). B is the fluorescence at 450 nm in the absence of enzyme (Background fluorescence)
as §7

What is called IC50 is the concentration that inhibits the measured activity by half.

Consider `O=C(NO)c1ccc(-c2nccc(OCc3ccccc3)n2)s1` [Example 1 (z), 5-(4-Benzyloxy-pyrimidin-2-yl)-thiophene-2-carboxylic acid hydroxyamide], for which the IC50 turned out to be 7.3 µM in test [1], 2.3 µM in test [2] and 0.076 µM in test [3].
For `O=C(NO)c1ccc(-c2ccccc2)s1` [Example 1 (g), 5-Phenyl-thiophene-2-carboxylic acid hydroxyamide], the results for the half-inhibitory concentration (IC50) in test [1], in test [2] and in test [3] were 44 µM, 31 µM and 0.9 µM, respectively.
For `NS(=O)(=O)c1cccc(NC(=O)Cn2ccc(-c3ccc(C(=O)NO)s3)n2)c1` [Example 1 (dc), 5-{1-[(3-Sulfamoyl-phenylcarbamoyl)-methyl]-1H-pyrazol-3-yl}-thiophene-2-carboxylic acid hydroxyamide], the IC50 in test [3] came to 0.242 µM.
As to `O=C(NO)c1ccc(-c2ccn(Cc3ccccc3)n2)s1` [Example 1 (l), 5-(1-Benzyl-1H-pyrazol-3-yl)-thiophene-2-carboxylic acid hydroxyamide], the figures for the IC50 in test [1], in test [2] and in test [3] were 4.5 µM, 2.1 µM and 0.153 µM, respectively.
Regarding `O=C(NO)c1ccc(-c2ccc(NCc3cc4ccccc4o3)cn2)s1` [Example 1 (ba), 5-{5-[(Benzofuran-2-ylmethyl)-amino]-pyridin-2-yl}-thiophene-2-carboxylic acid hydroxyamide], the IC50 in test [1] is 2 µM; in test [2], 0.6 µM; in test [3], 0.062 µM.
Consider `Cn1nc(C(F)(F)F)cc1-c1ccc(C(=O)NO)s1` [Example 1 (a), 5-(2-Methyl-5-trifluoromethyl-2H-pyrazol-3-yl)-thiophene-2-carboxylic acid hydroxyamide], for which the values for the IC50 in test [1] and in test [2] were 32 µM and 11 µM, respectively.
